Measurements reported in patent publication US12104178B2, “DHFR tunable protein regulation” (Obsidian Therapeutics, Inc., priority 2017, dated 2024).

What was measured:
NK-92 cells [1] = assay: NK-92 activation markers with IL15 (Tables 82, 84); format: cell-based; conditions: for pSTAT5 (15 mins) / pSTAT5 (60 mins) / CD69 / CXCR4 / Granzyme B / IFNgamma / Perforin: NK-92 cells, fold change; for pSTAT5 (15 mins) / pSTAT5 (60 mins): FACS; for CD69 / CXCR4 / Granzyme B / IFNgamma / Perforin: activation marker by FACS
Protocol: (§1) The dependency of the NK-92 cells on cytokines for activation was tested. […] The cells were cultured for 18 hours in the presence of IL12 (10 ng/ml) or varying concentrations of IL15 (100 ng/ml, 20 ng/ml, 4 ng/ml, 0.8 ng/ml, 0.16 ng/ml, 0.032 ng/ml, 0.0064 ng/ml and 0.00128 ng/ml). NK-92 cell activation in response to IL15 and IL12 treatment was evaluated by FACS analysis using a panel of markers whose increased expression is associated with NK activation. These include NKG2D, CD71, CD69; chemokine receptors such as CCR5, CXCR4, and CXCR3, Perforin, Granzyme B and Interferon gamma (IFNg). Prior to FACS analysis for IFNg, cells were cultured for 4 hours with Brefeldin A. NK cells respond to external stimuli such as cytokines in their environment through the phosphorylation of proteins JAK/STAT, ERK, and p38/MAPK pathways which are important for cell activation, signaling and differentiation pathways. The phosphorylation of AKT, STAT3 and STAT5 in response to cytokine addition was measured by FACS. Since phosphorylation events are transient NK-92 cells were treated with the cytokines for 15 or 60 minutes, prior to the analysis.
as §1, with “of” for “of IL12 (10 ng/ml) or”, “IL15” for “IL15 and IL12”, “Perform,” for “Perforin,”

NK-92 cells [2] = assay: Cytokine dependent proliferation of NK-92, Jurkat and SupT1 cells; format: cell-based; conditions: 3 days
Protocol: The dependency of immune cells on cytokines for proliferation was tested in NK-92 cells and T cell lines Jurkat cells and SupT1 cells. Cells were seeded at 40,000 per well and cultured in the presence of IL2 or IL15 for 3 days.

## IL15: cytokine added to NK-92 cells
NK-92 cells [1]; IL15 0.00128-100 ng/ml, 18 h
  NK-92 activation marker expression: increase in the expression of CD69, CXCR4, Perforin, Granzyme B, and IFNg
NK-92 cells [1]; IL15 0.00128 ng/ml
  pSTAT5 (15 mins): 0.99
  pSTAT5 (60 mins): 1.04
  CD69: 1.07
  CXCR4: 1.15
  Granzyme B: 0.88
  IFNgamma: 1.19
  Perforin: 0.85
NK-92 cells [1]; IL15 0.0064 ng/ml
  pSTAT5 (15 mins): 1.03
  pSTAT5 (60 mins): 1.26
  CD69: 1.11
  CXCR4: 1.19
  Granzyme B: 0.78
  IFNgamma: 0.85
  Perforin: 0.79
NK-92 cells [1]; IL15 0.032 ng/ml
  pSTAT5 (15 mins): 1.23
  pSTAT5 (60 mins): 1.67
  CD69: 1.05
  CXCR4: 1.14
  Granzyme B: 0.92
  IFNgamma: 0.95
  Perforin: 0.92
NK-92 cells [1]; IL15 0.8 ng/ml
  pSTAT5 (15 mins): 1.76
  pSTAT5 (60 mins): 2.17
  CD69: 1.18
  CXCR4: 2.10
  Granzyme B: 1.09
  IFNgamma: 1.92
  Perforin: 1.16
NK-92 cells [1]; IL15 4 ng/ml
  pSTAT5 (15 mins): 1.81
  pSTAT5 (60 mins): 2.35
  CD69: 1.59
  CXCR4: 3.03
  Granzyme B: 1.16
  IFNgamma: 2.76
  Perforin: 1.28
NK-92 cells [1]; IL15 20 ng/ml
  pSTAT5 (15 mins): 1.96
  pSTAT5 (60 mins): 2.35
  CD69: 2.10
  CXCR4: 3.62
  Granzyme B: 1.40
  IFNgamma: 5.55
  Perforin: 1.57
NK-92 cells [1]; IL15 100 ng/ml
  pSTAT5 (15 mins): 1.98
  pSTAT5 (60 mins): 2.34
  CD69: 1.91
  CXCR4: 3.87
  Granzyme B: 1.48
  IFNgamma: 9.00
  Perforin: 1.67
NK-92 cells [2]
  NK-92 cell numbers: increased cell numbers
